Like-named read-outs stand apart in the source and are kept apart here.
Columns and labels:
PAFR [1] = conditions: literature (Pietri, 2001; Jaracz, 2002); cited from earlier work
PAFR [2] = biological target: T1, PAFR (Cavia porcellus, UniProt P21556); conditions: for Ki: Inhibition of [^3H]-WEB 2086 binding, cloned PAFR, Cheng-Prusoff from IC50; for PAFR binding (in words): at the concentrations tested
PAFR [3] = biological target: T1, PAFR; format: binding, PAFR transgenic mice
PAFR [4] = biological target: T1, PAFR; assay: biochemical
PAFR [5] = assay: PAFR antagonism in previous or preliminary studies (literature, unpublished results); conditions: preliminary studies (Suehiro, unpublished results)
PAFR [6] = conditions: PAF-induced rabbit platelet aggregation (Park, 1996; Hu, 1999; Hu, 2000); cited from earlier work
[7] = Ki, Inhibition of [^3H]-WEB 2086 binding, means of two independent experiments performed in triplicate
[8] = Inhibition of [^3H]-WEB 2086 binding, means of two independent experiments performed in triplicate, read-out: Ki

T1 sequence (P21556 whole entry): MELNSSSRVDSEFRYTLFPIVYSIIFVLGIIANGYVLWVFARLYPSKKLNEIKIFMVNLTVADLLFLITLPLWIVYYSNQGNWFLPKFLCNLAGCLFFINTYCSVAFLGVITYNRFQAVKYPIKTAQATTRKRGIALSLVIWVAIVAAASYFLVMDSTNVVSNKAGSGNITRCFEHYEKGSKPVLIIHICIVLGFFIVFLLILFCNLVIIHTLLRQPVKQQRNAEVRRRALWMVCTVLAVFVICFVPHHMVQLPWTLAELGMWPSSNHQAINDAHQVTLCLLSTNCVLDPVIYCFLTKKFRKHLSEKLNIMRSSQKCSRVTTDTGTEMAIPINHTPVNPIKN

## 7-O-(4-methylphenyl)-GB
PAFR [1]
  PAFR activity (in words): devoid of PAFR activity

## 10-O-benzophenone-7-O-dansyl ginkgolide C [Compound 10a]
PAFR [2]
  Ki: 3940 nM
PAFR [2]; ratio of Ki
  times less active than 9a: ca. 6

## 10-O-benzoylbenzoic ginkgolide C [Compound 11]
PAFR [2]
  Ki: 130 nM

## CC1C(=O)OC2C(O)C34C5OC(=O)C3(OC3OC(=O)C(O)C34C(C(C)(C)C)C5O)C12O (stereo not drawn) [7-epi-GC (18), 7-Epi-ginkgolide C]
PAFR [3]; [7]
  Ki: 4260 nM

## CC1C(=O)OC2C(O)C34C5OC(=O)C3(OC3OC(=O)C(O)C34C(C(C)(C)C)C5Cl)C12O (stereo not drawn) [7α-Cl-GB (22), 7α-Chloro Ginkgolide B]
PAFR [3]; ratio of Ki
  fold more potent than GC (2): 115
  times more potent than GB (1): 8

## CC1C(=O)O[C@H]2C(O)C34C5OC(=O)[C@@]3(OC3OC(=O)[C@H](O)C34C(C(C)(C)C)[C@@H]5N=[N+]=[N-])[C@@]12O (stereo partly drawn) [7α-N3-GB (20), 7α-Azido Ginkgolide B]
PAFR [3]; [8]
  Ki: 550 nM

## CCNC1C(C(C)(C)C)C23C(OC(=O)C2O)OC24C(=O)OC1C32C(O)C1OC(=O)C(C)C14O (stereo not drawn) [7α-NHEt-GB (26), 7α-N-Ethylamino Ginkgolide B]
PAFR [3]; [8]
  Ki: 1620 nM
PAFR [3]; [7]
  Ki: 550 to 1620 nM

## CNC1C(C(C)(C)C)C23C(OC(=O)C2O)OC24C(=O)OC1C32C(O)C1OC(=O)C(C)C14O (stereo not drawn) [7α-NHMe-GB (25), 7α-N-Methylamino Ginkgolide B]
PAFR [3]; [8]
  Ki: 610 nM
PAFR [3]; [7]
  Ki: 550 to 1620 nM

## CC(=O)OC1C(C(C)(C)C)C23C(OC(=O)C2O)OC24C(=O)OC1C32C(O)C1OC(=O)C(C)C14O (stereo not drawn) [7α-OAc-GB (17), 7α-O-Acetate Ginkgolide B]
PAFR [3]; [8]
  Ki: 7840 nM

## CC1C(=O)OC2C(O)C34C5OC(=O)C3(OC3OC(=O)C(O)C34C(C(C)(C)C)C5OC(=O)Cc3ccccc3)C12O (stereo not drawn) [7α-OCOCH2Ph-GB (19), 7α-O-Phenylacetate Ginkgolide B]
PAFR [3]; [7]
  Ki: 2400 nM

## CC1C(=O)OC2C(O)C34C5OC(=O)C3(OC3OC(=O)C(OCc6ccccc6)C34C(C(C)(C)C)C5F)C12O (stereo not drawn) [10-OBn-7α-F-GB (30), 10-O-Benzyl-7α-fluoro Ginkgolide B]
PAFR [3]; [7]
  Ki: 100 nM
PAFR [3]; ratio of Ki
  fold improved affinity compared to non-benzylated derivative: 10

## CC1C(=O)OC2C(O)C34C5CC(C(C)(C)C)C36C(OC(=O)C6OCc3ccccc3)OC4(C(=O)O5)C12O (stereo not shown) [10-OBn-GB (28), 10-O-Benzyl Ginkgolide B]
PAFR [3]; [8]
  Ki: 120 nM

## CC1C(=O)OC2C(O)C34C5OC(=O)C3(OC3OC(=O)C(OCc6ccccc6)C34C(C(C)(C)C)C5O)C12O (stereo not shown) [10-OBn-GC (29), 10-O-Benzyl Ginkgolide C]
PAFR [3]; [8]
  Ki: 1670 nM

## CC1C(=O)OC2C(O)C34C5OC(=O)C3(OC3OC(=O)C(OCc6ccccc6)C34C(C(C)(C)C)C5O)C12O (stereo not drawn) [10-OBn-epi-GC (31), 10-O-Benzyl-7-epi-ginkgolide C]
PAFR [3]; [8]
  Ki: 600 nM
PAFR [3]; ratio of Ki
  fold improved affinity compared to non-benzylated derivative: 7

## CC(C)(C)[C@]1(O)CC2OC(=O)CC23C(=O)OC2OC(=O)[C@H](O)C231 (stereo partly shown) [BB (6), bilobalide]
PAFR [2]
  Ki: > 50000 nM
  PAFR binding (in words): not active in concentrations up to 100 μM

## CC1C(=O)OC2C(O)C34C5CC(C(C)(C)C)C36C(OC(=O)C6OCc3ccc(C6(C(F)(F)F)N=N6)cc3)OC4(C(=O)O5)C12O (stereo not shown) [Compound 8b, 10-O-(trifluoromethyl-3H-diazirine)benzyl ginkgolide B]
PAFR [4]
  Ki: 150 nM

## CC1C(=O)OC2C(O)C34C5CC(C(C)(C)C)C36C(OC(=O)C6OCc3c(F)c(F)c(N=[N+]=[N-])c(F)c3F)OC4(C(=O)O5)C12O (stereo not shown) [Compound 8c, 10-O-tetrafluorobenzylazide ginkgolide B]
PAFR [4]
  Ki: 90 nM

## CC1C(=O)OC2C(O)C34C5OC(=O)C3(OC3OC(=O)C(OCc6c(F)c(F)c(N=[N+]=[N-])c(F)c6F)C34C(C(C)(C)C)C5O)C12O (stereo not shown) [Compound 9c, 10-O-tetrafluorobenzylazide ginkgolide C]
PAFR [4]
  Ki: 790 nM

## CC1C(=O)OC2C(OS(=O)(=O)c3cccc4c(N(C)C)cccc34)C34C5OC(=O)C3(OC3OC(=O)C(OCc6ccc(C(=O)c7ccccc7)cc6)C34C(C(C)(C)C)C5O)C12O (stereo not shown) [Compound 10b, 10-O-benzophenone-1-O-dansyl ginkgolide C]
PAFR [4]
  Ki: 960 nM
PAFR [2]
  times more potent than 10a: ca. four

## CC1C(=O)OC2C(O)C34C5OC(=O)C3(OC3OC(=O)C(O)C34C(C(C)(C)C)C5F)C12O (stereo not shown) [Compound 13, 7-Fluoro ginkgolide B]
PAFR [5]
  fold more potent as a PAFR antagonist compared to GC (2): 15
PAFR [2]
  fold more potent / improved affinity to PAFR relative to GC (3): ca. 10

## COC1C(=O)OC2OC34C(=O)OC5CC(C(C)(C)C)C21C53C(O)C1OC(=O)C(C)C14O (stereo not shown) [Compound 14, 10-O-Methyl ginkgolide B]
PAFR [4]
  Ki: 3160 nM

## C[C@@H]1C(=O)O[C@H]2C[C@@]34[C@H]5C[C@@H](C(C)(C)C)[C@]36[C@@H](OC(=O)[C@@H]6O)O[C@@]4(C(=O)O5)[C@]21O [GA (1), ginkgolide A]
PAFR [2]
  Ki: 1460 nM

## CC1C(=O)OC2C(O)C34C5CC(C(C)(C)C)C36C(OC(=O)C6O)OC4(C(=O)O5)C12O (stereo not shown) [GB (2), ginkgolide B, reference compound]
PAFR [4]
  Ki: 560 nM
PAFR [6]
  IC50: ~200 nM
PAFR [3]; ratio of Ki
  fold more potent than GC (2): ca. 25
PAFR [3]; read-out: Ki
  Ki: 880 nM

## CC1C(=O)OC2C(O)C34C5OC(=O)C3(OC3OC(=O)C(O)C34C(C(C)(C)C)C5O)C12O (stereo not shown) [GC (3), ginkgolide C, reference compound]
PAFR [4]
  Ki: 12600 nM

## C[C@@H]1C(=O)O[C@@H]2[C@H]1[C@@]13OC4OC(=O)[C@H](O)C45[C@H](C(C)(C)C)[C@@H](O)C(OC1=O)[C@]53[C@H]2O (stereo partly shown) [GM (5), ginkgolide M]
PAFR [2]
  Ki: > 50000 nM
  PAFR binding (in words): devoid of PAFR binding

## Neoginkgolide C [Compound 23]
PAFR [3]; [8]
  Ki: > 40000 nM

## ginkgolide J [GJ (4)]
PAFR [2]
  Ki: 9900 nM

— patent publication US7473788B2, “Analogs of terpene trilactones from Ginkgo biloba and related compounds and uses thereof” (The Trustees of Columbia University in the City of New York, priority 2002, dated 2009)
